Assay results published in ChEMBL document CHEMBL1697731, “Cheminformatics analysis of assertions mined from literature that describe drug-induced liver injury in different species” (Chem Res Toxicol, 2010).

How the values were obtained:
[1] = test system: Hepatotoxicity; test: Literature-mined compound from Fourches et al multi-species drug-induced liver injury (DILI) dataset, effect in humans; settings: human
[2] = test system: Hepatotoxicity; test: Literature-mined compound from Fourches et al multi-species drug-induced liver injury (DILI) dataset, effect in rodents; settings: rodentia
[3] = test system: Hepatotoxicity; test: Literature-mined compound from Fourches et al multi-species drug-induced liver injury (DILI) dataset, effect in non-rodents

| Compound | Hepatotoxicity [1] | Hepatotoxicity [2] | Hepatotoxicity [3] | Hepatotoxicity ([1]; Liver) | Hepatotoxicity ([2]; Liver) | Hepatotoxicity ([3]; Liver) |
| --- | --- | --- | --- | --- | --- | --- |
| CCCCC(CC)CN1CN(CC(CC)CCCC)CC(C)(N)C1 (stereo not drawn) [HEXETIDINE] | no drug-induced liver injury reported | drug-induced liver injury reported | no drug-induced liver injury reported |  |  |  |
| C[C@@H]1C/C=C/C=C/C=C/C=C/[C@H](O[C@@H]2O[C@H](C)[C@@H](O)[C@H](N)[C@@H]2O)C[C@@H]2O[C@](O)(C[C@@H](O)C[C@H]3O[C@@H]3/C=C/C(=O)O1)C[C@H](O)[C@H]2C(=O)O [NATAMYCIN] | no drug-induced liver injury reported | no drug-induced liver injury reported | drug-induced liver injury reported |  |  |  |
| C=O [FORMALDEHYDE] |  |  |  | drug-induced liver injury reported | drug-induced liver injury reported | no drug-induced liver injury reported |
| NC(N)=O [UREA] | no drug-induced liver injury reported | drug-induced liver injury reported | no drug-induced liver injury reported |  |  |  |
| CC[C@]12C=CCN3CC[C@@]4(c5cc([C@@]6(C(=O)OC)C[C@@H]7C[C@@H](C(C)(F)F)CN(Cc8c6[nH]c6ccccc86)C7)c(OC)cc5N(C)[C@H]4[C@@](O)(C(=O)OC)[C@@H]1OC(C)=O)[C@@H]32 [VINFLUNINE] | no drug-induced liver injury reported | drug-induced liver injury reported | no drug-induced liver injury reported |  |  |  |
| CO[C@@H]1[C@H](OC(=O)NC(=O)CCl)CC[C@]2(CO2)[C@H]1[C@@]1(C)O[C@@H]1CC=C(C)C [O-CHLOROACETYLCARBAMOYLFUMAGILLOL] | no drug-induced liver injury reported | drug-induced liver injury reported | drug-induced liver injury reported |  |  |  |
| CCCC1(CCC)CCC2(CCN(CCCN(CC)CC)C2)CC1 [ATIPRIMOD] | drug-induced liver injury reported | no drug-induced liver injury reported | no drug-induced liver injury reported |  |  |  |
| O=C(O)Cc1ccccc1 [PHENYLACETIC ACID] | no drug-induced liver injury reported | drug-induced liver injury reported | no drug-induced liver injury reported |  |  |  |
| C=CC(N)CCC(=O)O (stereo not drawn) [VIGABATRIN] | no drug-induced liver injury reported | drug-induced liver injury reported | no drug-induced liver injury reported |  |  |  |
| CCC(=O)O[C@H]1CC[C@H]2[C@@H]3CCC4=CC(=O)CC[C@]4(C)[C@H]3CC[C@]12C [TESTOSTERONE PROPIONATE] | no drug-induced liver injury reported | drug-induced liver injury reported | no drug-induced liver injury reported |  |  |  |
| C[C@H](CCC(=O)O)[C@H]1CC[C@H]2[C@@H]3C(=O)C[C@@H]4CC(=O)CC[C@]4(C)[C@H]3CC(=O)[C@]12C [DEHYDROCHOLIC ACID] | no drug-induced liver injury reported | drug-induced liver injury reported | no drug-induced liver injury reported |  |  |  |
| O=C([O-])O.[Na+] [SODIUM BICARBONATE] |  |  |  | no drug-induced liver injury reported | drug-induced liver injury reported | drug-induced liver injury reported |
| CC(C)NCC(O)COc1cccc2ccccc12 (stereo not drawn) [PROPRANOLOL] | drug-induced liver injury reported | drug-induced liver injury reported | drug-induced liver injury reported |  |  |  |
| C[C@H]1O[C@H](O[C@H]2[C@H](O)[C@@H](O)[C@@H](O[C@H]3[C@H](O)[C@@H](O)C(O)O[C@@H]3CO)O[C@@H]2CO)[C@H](O)[C@@H](O)[C@@H]1N[C@H]1C=C(CO)[C@@H](O)[C@H](O)[C@H]1O (stereo partly drawn) [ACARBOSE] | drug-induced liver injury reported | drug-induced liver injury reported | no drug-induced liver injury reported |  |  |  |
| CCC(=O)O[C@H]1[C@H](O[C@@H]2[C@@H](C)[C@H](O[C@H]3C[C@@](C)(OC)[C@@H](O)[C@H](C)O3)[C@@H](C)C(=O)O[C@H](CC)[C@@](C)(O)[C@H](O)[C@@H](C)C(=O)[C@H](C)C[C@@]2(C)O)O[C@H](C)C[C@@H]1N(C)C.CCCCCCCCCCCCOS(=O)(=O)O [ERYTHROMYCIN ESTOLATE] | drug-induced liver injury reported | drug-induced liver injury reported | no drug-induced liver injury reported |  |  |  |
| CC(NC(C)(C)C)C(=O)c1cccc(Cl)c1 (stereo not drawn) [BUPROPION] | drug-induced liver injury reported | no drug-induced liver injury reported | no drug-induced liver injury reported |  |  |  |
| CC(C)(C)NC(=O)[C@@H]1C[C@@H]2CCCC[C@@H]2CN1C[C@@H](O)[C@H](Cc1ccccc1)NC(=O)[C@H](CC(N)=O)NC(=O)c1ccc2ccccc2n1 |  |  |  | drug-induced liver injury reported | no drug-induced liver injury reported | no drug-induced liver injury reported |
| LACTOSE, ANHYDROUS | no drug-induced liver injury reported | drug-induced liver injury reported | no drug-induced liver injury reported |  |  |  |

| Compound | Hepatotoxicity [1] | Hepatotoxicity [2] | Hepatotoxicity [3] | Hepatotoxicity ([1]; Liver) | Hepatotoxicity ([2]; Liver) | Hepatotoxicity ([3]; Liver) |
| --- | --- | --- | --- | --- | --- | --- |
| CC[C@H]1OC(=O)[C@H](C)C(=O)[C@H](C)[C@@H](O[C@@H]2O[C@H](C)C[C@H](N(C)C)[C@H]2O)[C@](C)(OC)C[C@@H](C)C(=O)[C@H](C)[C@H]2N(CCCCn3cnc(-c4cccnc4)c3)C(=O)O[C@]12C [TELITHROMYCIN] |  |  |  | drug-induced liver injury reported | drug-induced liver injury reported | no drug-induced liver injury reported |
| Cc1nnc2n1-c1sc(Br)cc1C(c1ccccc1Cl)=NC2 [BROTIZOLAM] | no drug-induced liver injury reported | drug-induced liver injury reported | no drug-induced liver injury reported |  |  |  |
| CC1=C(CCC(=O)O)c2cc3nc(cc4[nH]c(cc5[nH]c(cc1n2)c(C)c5C(C)O)c(C)c4C(C)O)C(C)=C3CCC(=O)O (stereo not drawn) [HAEMAPORPHYRIN] | no drug-induced liver injury reported | drug-induced liver injury reported | no drug-induced liver injury reported |  |  |  |
| NNc1nnc(NN)c2ccccc12 [DIHYDRALAZINE] | drug-induced liver injury reported | drug-induced liver injury reported | no drug-induced liver injury reported |  |  |  |
| C=C1/C(=C\C=C2/CCC[C@]3(C)[C@@H]([C@H](C)CCCC(C)C)CC[C@@H]23)C[C@@H](O)C[C@@H]1O [ALFACALCIDOL] | drug-induced liver injury reported | no drug-induced liver injury reported | no drug-induced liver injury reported |  |  |  |
| NCCCCCC(=O)O [AMINOCAPROIC ACID] | drug-induced liver injury reported | no drug-induced liver injury reported | no drug-induced liver injury reported |  |  |  |
| CCCCC[C@H](O)/C=C/[C@H]1[C@H](O)CC(=O)[C@@H]1C/C=C\CCCC(=O)O [DINOPROSTONE] | drug-induced liver injury reported | drug-induced liver injury reported | no drug-induced liver injury reported |  |  |  |
| CCc1nn(CCCN2CCN(c3cccc(Cl)c3)CC2)c(=O)n1CCOc1ccccc1 [NEFAZODONE] | drug-induced liver injury reported | no drug-induced liver injury reported | no drug-induced liver injury reported |  |  |  |
| METHYLCOBALAMIN | no drug-induced liver injury reported | drug-induced liver injury reported | no drug-induced liver injury reported |  |  |  |
| CARBOPLATIN | drug-induced liver injury reported | drug-induced liver injury reported | no drug-induced liver injury reported |  |  |  |
| CC(=O)N(CC(O)CO)c1c(I)c(C(=O)NCC(O)CO)c(I)c(C(=O)NCC(O)CO)c1I (stereo not drawn) [IOHEXOL] | no drug-induced liver injury reported | no drug-induced liver injury reported | drug-induced liver injury reported |  |  |  |
| Cc1ccccc1C(OCCN(C)C)c1ccccc1 (stereo not drawn) [ORPHENADRINE] | no drug-induced liver injury reported | drug-induced liver injury reported | no drug-induced liver injury reported |  |  |  |
| N#Cc1cc(NC(=O)C(=O)O)c(Cl)c(NC(=O)C(=O)O)c1.NC(CO)(CO)CO | no drug-induced liver injury reported | drug-induced liver injury reported | no drug-induced liver injury reported |  |  |  |
| CNCCC=C1c2ccccc2CCc2ccccc21 [NORTRIPTYLINE] |  |  |  | drug-induced liver injury reported | no drug-induced liver injury reported | no drug-induced liver injury reported |
| Cc1cn([C@H]2C=C[C@@H](CO)O2)c(=O)[nH]c1=O [STAVUDINE] | drug-induced liver injury reported | drug-induced liver injury reported | no drug-induced liver injury reported |  |  |  |
| N=C(N)NN [PIMAGEDINE] | no drug-induced liver injury reported | drug-induced liver injury reported | no drug-induced liver injury reported |  |  |  |
| GOLD SODIUM THIOMALATE | drug-induced liver injury reported | drug-induced liver injury reported | no drug-induced liver injury reported |  |  |  |
| O=C1CCC(N2C(=O)c3ccccc3C2=O)C(=O)N1 (stereo not drawn) [THALIDOMIDE] | drug-induced liver injury reported | drug-induced liver injury reported | no drug-induced liver injury reported |  |  |  |
